{"source": "patent US20200222400A1", "about": "“METHODS FOR THE TREATMENT OF NEUROLOGICAL DISORDERS” (Yumanity Therapeutics, Inc., priority 2019, published 2020)", "tested_on": "SCD", "assay": "Fatty acid saturation in guinea pig brain after oral SCD inhibitors (GC-FID of FAME)", "type": "in vivo", "details": "oral 25 mg/kg twice daily 5 days, vs vehicle", "method": "FIG. 19A-FIG. 19F are a series of graphs showing an evaluation of fatty acid saturation in guinea pig brain after oral administration of SCD inhibitors. Guinea pigs were dosed orally with SCD inhibitors twice daily (every 12 hours) for 5 days. Guinea pigs were dosed with vehicle, SCD5 Selective Inhibitor 1 (“SCD5-SI-1”), SCD5 Selective Inhibitor 2 (“SCD5-SI-2”), CAY10566 (“CAY”) or SCD1/SCD5 Inhibitor 1 (“SCD1/5-1”), all compounds at 25 mg/kg with a volume-matched vehicle control. Four hours after the last dose on day 5, guinea pigs were sacrificed, and brains were removed after whole-body saline perfusion. […] Samples were evaluated on a gas chromatograph with a flame ionization detector (GC-FID) to quantify a comprehensive panel of fatty acid species. Brain samples were evaluated for levels of 16 (FIG. 19A) and 18 (FIG. 19B) carbon-containing fatty acids (C16, C18 respectively), and the desaturation index (DI) was calculated by taking the ratio of desaturated to saturated fatty acid for each species. […] Brain samples were evaluated for the relative levels of the positional isomers of C16, including C16:1 n7 palmitoleic acid (FIG. 19C) or C16:1 n9 monounsaturated fatty acids (FIG. 19D). […] Data was analyzed by one-way ANOVA with Tukey's post-hoc test to account for multiple comparisons. ** p<0.01, *** p<0.005, **** p<0.0001. […]", "data": [{"compound": "Cc1nnc(-c2ccc(N3CCC(Oc4cc(F)ccc4Cl)CC3)nn2)o1", "note": "[CAY10566]", "values": [{"measurement": "C16 desaturation index (DI), brain", "value": "decreased the C16 DI"}]}]}
